Reference: article PMC10652874, “Investigation into the mechanism of action of the antimicrobial peptide epilancin 15X” (Frontiers in Microbiology, 2023)

Test system: S. carnosus TM300
Experiment: RNAseq differential gene expression
Assay type: cell-based, Staphylococcus carnosus
Protocol: For the RNAseq experiments, epilancin was added at sub-lethal concentration (0.5x MIC) to S. carnosus TM300 once the cultures reached an OD600 of 0.6. RNA was extracted 40 min after the treatment, using a FastRNA Pro Blue kit (MP Biomedicals). Both treated and parallel untreated samples were collected at the same time. Sequencing was performed at the Carver Biotechnology Center (UIUC). For RNAseq analysis, gene counts were read in to R (v3.1.1; [Team, 2014]), and 14/2441 genes were removed because they had fewer than 32 total counts across the six samples. edgeR’s (v3.6.7) TMM normalization ([Robinson and Oshlack, 2010]) plus negative binomial generalized log-linear model ([McCarthy et al., 2012]) was used to test for differential expression between treated and untreated groups, while accounting for pairing of U and T replicates from three different cultures. p-values were adjusted using the false discovery rate method ([Benjamini and Hochberg, 1995]).

[1] = AraC family transcriptional regulator
[2] = S. carnosus TM300, 0.5x MIC, RNA extracted 40 min after treatment

For Epilancin 15X, the “fold_change Sca_0118” value was 2.03, the “fold_change Sca_0226” value was 2.6 and the “fold_change Sca_0277” value was 4.82. The “fold_change Sca_0326” value was 2.89, the “fold_change Sca_0702” value was 3.4 and the “fold_change Sca_1839” value was 2.65. For the same substance, the “fold_change Sca_0283” value (4-aminobutyrate aminotransferase) was 2.6, the “fold_change Sca_1048” value (5-bromo-4-chloroindolyl phosphate hydrolysis protein XpaC) was 2.07 and the “fold_change rpsN” value (30S ribosomal protein S14) was 0.49. The “fold_change rplS” value (50S ribosomal protein L19) was 0.5, the “fold_change Sca_1439” value (ABC transporter ATP-binding protein) was 2.23 and the “fold_change Sca_0292” value (ATP-binding cassette transporter A) was 2.29. For the same substance, the “fold_change clpP” value (ATP-dependent Clp protease proteolytic subunit) was 5.08, the “fold_change recG” value (ATP-dependent DNA helicase RecG) was 2.72 and the “fold_change Sca_0180” value (ATP:guanido phosphotransferase) was 4.91. The “fold_change Sca_0313” value [1] was 2.06, the “fold_change Sca_0314” value [1] was 2.39 and the “fold_change Sca_0315” value [1] was 2.4. For the same substance, the “fold_change Sca_0113” value (ArsR family transcription regulator) was 4.25, the “fold_change clpB” value (ClpB chaperone) was 10.1 and the “fold_change clpC” value (ClpC ATPase family protein) was 4.95. For the same substance, the “fold_change dltA” value (D-alanine--poly(phosphoribitol) ligase subunit 1) was 2.2, the “fold_change dltC” value (D-alanine--poly(phosphoribitol) ligase subunit 2) was 2.03 and the “fold_change dnaN” value (DNA polymerase III subunit beta) was 2.14. For the same substance, the “fold_change dinB” value (DNA polymerase IV, gene dinP) was 2.92, the “fold_change dltB” value (DltB membrane protein) was 2.19 and the “fold_change Sca_2272” value (Glycerate kinase) was 2.24. For the same substance, the “fold_change Sca_0776” value (Glyoxalase family protein) was 2.76, the “fold_change hslO” value (Hsp33-like chaperonin, gene hsp33) was 2.39 and the “fold_change Sca_0214” value (LD-carboxypeptidase family protein) was 0.5. The “fold_change lexA” value (LexA repressor) was 2.01, the “fold_change Sca_0115” value (LysR family transcriptional regulator) was 2.11 and the “fold_change moaD” value (MoaD) was 2.46. The “fold_change moaE” value (MoaE) was 2.53, the “fold_change mobB” value (MobB) was 2.72 and the “fold_change moaA” value (Molybdenum cofactor biosynthesis protein A) was 2.82. For the same substance, the “fold_change nanA” value (N-acetylneuraminate lyase) was 2.13, the “expression of vraR, upregulated compared to untreated control” value [2] was 8 fold and the “expression of vraS, upregulated compared to untreated control” value [2] was 8 fold. The “fold_change Sca_0453” value (TOPRIM domain-containing protein) was 3.05, the “fold_change Sca_2234” value (TetR family transcriptional regulator) was 2.13 and the “fold_change Sca_2397” value (ThiJ/PfpI family protein) was 4.76. For the same substance, the “fold_change gtaB” value (UTP-glucose-1-phosphate uridyltransferase) was 0.5, the “fold_change Sca_0065” value (acetoin reductase) was 4.35 and the “fold_change mecA” value (adaptor protein, gene SCA_0598) was 2.48. The “fold_change glpD” value (aerobic glycerol-3-phosphate dehydrogenase) was 2.81, the “fold_change Sca_2335” value (alcohol dehydrogenase, zinc-containing, gene gutB) was 2.81 and the “fold_change ahpC” value (alkyl hydroperoxide reductase subunit C) was 5.8. For the same substance, the “fold_change ahpF” value (alkyl hydroperoxide reductase subunit F) was 5.74, the “fold_change lrgB” value (antiholin-like protein LrgB) was 5.42 and the “fold_change capM” value (capsular polysaccharide synthesis enzyme Cap5M) was 0.49. For the same substance, the “fold_change katA” value (catalase) was 2.04, the “fold_change dnaJ” value (chaperone protein DnaJ) was 2.06 and the “fold_change uvrA” value (excinuclease ABC subunit A) was 3.06. The “fold_change uvrB” value (excinuclease ABC subunit B) was 3.63, the “fold_change uvrC” value (excinuclease ABC subunit C) was 2.28 and the “fold_change Sca_1475” value (formate dehydrogenase) was 2.72. For the same substance, the fold_change fdh (formate dehydrogenase) was 3.34, the fold_change (gene SCA_0282 (thrS), threonyl-tRNA synthetase) was 0.44 and the fold_change (gene Sca_0027 (ssb), putative single-strand DNA-binding protein) was 0.48. It also gave a fold_change (gene Sca_0095, putative autolysin with LysM domain) of 0.47, a fold_change (gene Sca_0210, Choloylglycine hydrolase family protein) of 0.42 and a fold_change (gene Sca_0261, FecCD transport family protein) of 0.48. The fold_change (gene Sca_0273, putative lipoprotein, AdhesinB family protein) was 0.41, the fold_change (gene Sca_0274, putative ABC transporter permease) was 0.44 and the fold_change (gene Sca_0348 (fruA), putative fructose specific permease) was 0.49. The fold_change (gene Sca_0374, putative proton-dependent oligopeptide transporter) was 0.43, the fold_change (gene Sca_0418, putative branched-chain amino acid transport system II carrier protein) was 0.4 and the fold_change (gene Sca_0437 (csp), putative cold-shock protein) was 0.43. For the same substance, the fold_change (gene Sca_0445, hypothetical protein) was 0.43, the fold_change (gene Sca_0446, hypothetical protein) was 0.45 and the fold_change (gene Sca_0547, cytosol aminopeptidase family protein) was 0.42. For the same substance, the fold_change (gene Sca_0617, hypothetical protein) was 0.45, the fold_change (gene Sca_0626, putative sodium transport protein) was 0.4 and the fold_change (gene Sca_0661) was 0.41. For the same substance, the fold_change (gene Sca_0724, putative DNA binding protein) was 0.44, the fold_change (gene Sca_0743, hypothetical protein) was 0.4 and the fold_change (gene Sca_0749, hypothetical protein) was 0.48. For the same substance, the fold_change (gene Sca_0919, hypothetical protein) was 0.44, the fold_change (gene Sca_0920, hypothetical protein) was 0.46 and the fold_change (gene Sca_0975, putative amino acid permease) was 0.46. It also gave a fold_change (gene Sca_0984, hypothetical protein) of 0.41, a fold_change (gene Sca_1053, hypothetical protein) of 0.47 and a fold_change (gene Sca_1134, hypothetical protein) of 0.45. It also gave a fold_change (gene Sca_1194, hypothetical protein) of 0.48, a fold_change (gene Sca_1195) of 0.43 and a fold_change (gene Sca_1364 (leuS''), leucyl-tRNA synthetase (fragment 2)) of 0.47. For the same substance, the fold_change (gene Sca_1365 (leuS'), leucyl-tRNA synthetase (fragment 1)) was 0.4, the fold_change (gene Sca_1388, hypothetical protein) was 0.46 and the fold_change (gene Sca_1421, hypothetical protein) was 0.46. For the same substance, the fold_change (gene Sca_1425, hypothetical protein) was 0.45, the fold_change (gene Sca_1427, hypothetical protein) was 0.41 and the fold_change (gene Sca_1433, hypothetical protein) was 0.44. For the same substance, the fold_change (gene Sca_1450, hypothetical protein) was 0.41, the fold_change (gene Sca_1584, hypothetical protein) was 0.47 and the fold_change (gene Sca_1777, hypothetical protein) was 0.41. For the same substance, the fold_change (gene Sca_1794, hypothetical protein) was 0.43, the fold_change (gene Sca_1832, hypothetical protein) was 0.42 and the fold_change (gene Sca_1870, hypothetical protein) was 0.45. The fold_change (gene Sca_1880, hypothetical protein) was 0.46, the fold_change (gene Sca_1922, putative integral membrane efflux protein) was 0.41 and the fold_change (gene Sca_1980, putative L-serine dehydratase beta chain) was 0.42. For the same substance, the fold_change (gene Sca_1997, hypothetical protein) was 0.49, the fold_change (gene Sca_2043, hypothetical protein) was 0.46 and the fold_change (gene Sca_2184, hypothetical protein) was 0.4. For the same substance, the fold_change (gene Sca_2345, hypothetical protein) was 0.41, the fold_change (gene Sca_2346, putative capsular polysaccharide biosynthesis protein) was 0.41 and the fold_change (gene Sca_2352, hypothetical protein) was 0.48. It also gave a fold_change (gene Sca_2411) of 0.47, a fold_change (gene apbA, putative 2-dehydropantoate 2-reductase) of 0.47 and a fold_change (gene aspS, aspartyl-tRNA synthetase) of 0.43. It also gave a fold_change (gene atpD, F0F1 ATP synthase subunit beta) of 0.41, a fold_change (gene capB, capsular polysaccharide biosynthesis protein) of 0.43 and a fold_change (gene ctaB, protoheme IX farnesyltransferase) of 0.41. The fold_change (gene cysE, serine acetyltransferase) was 0.46, the fold_change (gene deoD, purine nucleoside phosphorylase) was 0.48 and the fold_change (gene engB (SCA_1279), ribosome biogenesis GTP-binding protein YsxC) was 0.47. For the same substance, the fold_change (gene fbp, putative fructose-bisphosphatase) was 0.41, the fold_change (gene fecB, putative ferrichrome ABC transporter (binding protein)) was 0.42 and the fold_change (gene fruB, putative fructose 1-phosphate kinase) was 0.42. It also gave a fold_change (gene gcvH (gcdH), glycine cleavage system protein H) of 0.45, a fold_change (gene gcvPB' (gcvPB''), glycine dehydrogenase [decarboxylating] subunit 2(fragment 1)) of 0.43 and a fold_change (gene gntR, putative gluconate operon transcriptional repressor) of 0.47. It also gave a fold_change (gene gudB, NAD-specific glutamate dehydrogenase) of 0.47.
